# Where two headings read alike, the source gives them in different places.
# Key:
# [1] = target: T1, recombinant human CK2 (RRββ-holoenzyme) (Homo sapiens, UniProt P68400); assay: CK2 Kinase Assay (radiometric, [γ-33P]ATP); format: biochemical; conditions: final ATP 15 μM, 10 min at 30° C.; read-out: protein kinase CK2 inhibition IC50
# T1 construct: purchased Millipore
# Description: CK2 Kinase Assay was conducted using the protocol as described in Pierre F. et al; J. Med. Chem. 2011, 54, 635-654. The tested compounds in aqueous solution were added at a volume of 10 μL to a reaction mixture comprising 10 μL of assay dilution buffer (ADB; 20 mM MOPS, pH 7.2, 25 mM β-glycerol phosphate, 5 mM EGTA, 1 mM sodium orthovanadate, and 1 mM dithiothreitol), 10 μL of substrate peptide (RRRDDDSDDD, dissolved in ADB at a concentration of 1 mM), 10 μL of recombinant human CK2 (RRββ-holoenzyme, 25 ng dissolved in ADB; Millipore). Reactions were initiated by the addition of 10 μL of ATP solution (90% 75 mMMgCl2, 75 μM ATP (final ATP concentration:15 μM) dissolved in ADB; 10% [γ-33P] ATP (stock 1 mCi/100 μL: 3000 Ci/mmol (Perkin-Elmer) and maintained for 10 min at 30° C. The reactions were quenched with 100 μL of 0.75% phosphoric acid and then transferred to and filtered through a phosphor cellulose filter plate (Millipore). After washing each well five times with 0.75% phosphoric acid, the plate was dried under vacuum for 5 min and, following the addition of 15 μL of scintillation fluid to each well, the residual radioactivity was measured using a Wallac […]. The IC50 values were derived from eight concentrations of test inhibitors.
# MCF7 (breast) = assay: In vitro cytotoxic activity (MTT) assay, MCF7; format: cell-based; conditions: Homo sapiens; MCF7 (breast) cells, exposed for 96 hours; read-out: IC50, 50% inhibition of cell proliferation
# Description: (§1) Compounds 1-12 were screened for their in vitro cytotoxic activity utilizing a 3-(4,5-dimethyl-thiazol-2-yl)-2,5-diphenyltetrazolium bromide (MTT) assay against selected cancer human cell lines consisting of PC3 (prostate), HCT116 (colon). A375 (melanoma), H1299 (lung), MIAPaCa-2 (pancreas), HL60 (leukemia), MCF7 (breast), MDA-MB-231 (breast) (T. Mosmann, J. Immunol. Meth., 1983, 65, 55-63). The cells were cultured at 37° C. in RMPI1640 medium supplemented with 10% fetal bovine serum, 50 IU/mL penicillin, and 50 μg/mL streptomycin in a 5% CO2 incubator. All cells were sub-cultured 3 times/week by trypsinisation. Viable cells were seeded and allowed to adhere for 12 h before a test drug was added in 96-well plates at an initial density of 1.0×10^5 cells/mL. Tumour cell lines were separately exposed to various concentrations of the tested compounds followed by incubation at a temperature of 37° C. during 96 h inside a medium of fresh RMPI 1640. Cells were subsequently incubated at 37° C. using MTT at 0.5 mg/mL during 4 h. After removal of supernatant, formazan crystals were dissolved in isopropanol and the optical density was measured at 570 nm. CX-4945 was used as a positive control.
# HCT116 (colon) = assay: In vitro cytotoxic activity (MTT) assay, HCT116; format: cell-based; conditions: Homo sapiens, HCT-116; HCT116 (colon) cells, exposed for 96 hours; read-out: IC50, 50% inhibition of cell proliferation
# Description: as §1
# PC3 (prostate) = assay: In vitro cytotoxic activity (MTT) assay, PC3; format: cell-based; conditions: Homo sapiens, Prostate cell; PC3 (prostate) cells, exposed for 96 hours; read-out: IC50, 50% inhibition of cell proliferation
# Description: as §1
# HL60 (leukemia) = assay: In vitro cytotoxic activity (MTT) assay, HL60; format: cell-based; conditions: Homo sapiens, HL-60; HL60 (leukemia) cells, exposed for 96 hours; read-out: IC50, 50% inhibition of cell proliferation
# Description: as §1
# [2] = tested on: various human cancer cell lines; assay: In vitro cytotoxic activity assay, panel statement; format: cell-based
# Description: as §1
# MDA-MB-231 (breast) = assay: In vitro cytotoxic activity (MTT) assay, MDA-MB-231; format: cell-based; conditions: Homo sapiens; MDA-MB-231 (breast) cells, exposed for 96 hours; read-out: IC50, 50% inhibition of cell proliferation
# Description: as §1
# H1299 (lung) = assay: In vitro cytotoxic activity (MTT) assay, H1299; format: cell-based; conditions: Homo sapiens, NCI-H1299; H1299 (lung) cells, exposed for 96 hours; read-out: IC50, 50% inhibition of cell proliferation
# Description: as §1
# MIAPaCa-2 (pancreas) = assay: In vitro cytotoxic activity (MTT) assay, MIAPaCa-2; format: cell-based; conditions: Homo sapiens, MIA PaCa-2; MIAPaCa-2 (pancreas) cells, exposed for 96 hours; read-out: IC50, 50% inhibition of cell proliferation
# Description: as §1
# A375 (melanoma) = assay: In vitro cytotoxic activity (MTT) assay, A375; format: cell-based; conditions: Homo sapiens, A-375; A375 (melanoma) cells, exposed for 96 hours; read-out: IC50, 50% inhibition of cell proliferation
# Description: as §1
# T1 sequence (P68400 whole entry): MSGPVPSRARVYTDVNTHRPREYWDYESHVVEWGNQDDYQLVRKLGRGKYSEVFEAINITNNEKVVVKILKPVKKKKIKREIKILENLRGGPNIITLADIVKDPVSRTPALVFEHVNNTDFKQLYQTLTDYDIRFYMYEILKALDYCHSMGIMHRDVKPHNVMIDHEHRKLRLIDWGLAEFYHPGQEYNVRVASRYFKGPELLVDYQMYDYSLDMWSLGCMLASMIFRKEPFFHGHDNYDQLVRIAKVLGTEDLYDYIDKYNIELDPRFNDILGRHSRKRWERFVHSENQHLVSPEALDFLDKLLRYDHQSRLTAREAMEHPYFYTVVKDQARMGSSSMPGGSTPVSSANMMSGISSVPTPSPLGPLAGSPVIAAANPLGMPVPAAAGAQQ
# T1 sequence (P67870 whole entry partner): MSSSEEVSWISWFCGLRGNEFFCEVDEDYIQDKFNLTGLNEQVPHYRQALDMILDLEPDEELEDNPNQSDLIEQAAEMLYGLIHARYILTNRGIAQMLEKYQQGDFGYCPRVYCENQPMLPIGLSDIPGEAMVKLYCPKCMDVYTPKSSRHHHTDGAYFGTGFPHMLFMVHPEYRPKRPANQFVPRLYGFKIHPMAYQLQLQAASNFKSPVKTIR
smiles,measurement,setting,value
"Clc1cccc(Nc2nc3ccncc3c3nc4ccncn4c23)c1 [Compound 1, N-(3-chlorophenyl)pyrimido[6′,1′:2,3]imidazo[4,5-c][1,6]naphthyridin-6-amine]",IC50,[1],22 nM
same,IC50,MCF7 (breast),5100 nM
same,IC50,HCT116 (colon),1100 nM
same,IC50,PC3 (prostate),1400 nM
same,IC50,HL60 (leukemia),3200 nM
same,"in vitro anti-proliferative activity, in words",[2],promising anti-proliferative activity
same,"in vitro anti-proliferative activity, in words",[2]; listed as 13,promising in vitro anti-proliferative activity
same,IC50,MDA-MB-231 (breast),4500 nM
same,IC50,H1299 (lung),2500 nM
same,IC50,MIAPaCa-2 (pancreas),900 nM
same,IC50,A375 (melanoma),2900 nM
